Data reported in patent publication US9302999B2, “Substituted triazoles as herbicides” (E. I. DU PONT DE NEMOURS AND COMPANY, priority 2012, dated 2016).

Assays:
Assay type in all cases: in vivo
[1] = tested on: sedge, umbrella (small-flower umbrella sedge, Cyperus difformis); assay: Test C flooded paddy test: sedge, umbrella; conditions: scale 0 to 100 (0 no effect, 100 complete control)
Method in brief: (§1)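 Greenhouse plants treated at the 2-leaf stage by dosing the flood water (3 cm depth, maintained) were compared with controls after 13 to 15 days and rated 0 to 100, where 100 means complete control; a dash marks no test result.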

[2] = tested on: barnyardgrass (Echinochloa crus-galli); assay: Test A pre-/postemergence: barnyardgrass; conditions: for Barnyardgrass plant response rating: Postemergence; for Plant response rating, Barnyardgrass: Preemergence
Method in brief: (§2)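 Plants in loam–sand blend were treated with test chemicals in non-phytotoxic solvent with surfactant, either as preemergence directed soil spray or postemergence at 2–10 cm, one- to two-leaf stage. After about ten days in greenhouse, injury was rated visually against untreated controls on a 0–100 scale (100 = complete control).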

[3] = tested on: velvetleaf (Abutilon theophrasti); assay: Test A pre-/postemergence: velvetleaf; conditions: for Velvetleaf plant response rating: Postemergence; for Plant response rating, Velvetleaf: Preemergence
Method in brief: as §2

[4] = tested on: ducksalad (Heteranthera limosa); assay: Test C flooded paddy test: ducksalad; conditions: scale 0 to 100 (0 no effect, 100 complete control)
Method in brief: as §1

[5] = tested on: foxtail, giant (giant foxtail, Setaria faberii); assay: Test A pre-/postemergence: foxtail, giant; conditions: for Foxtail, Giant plant response rating: Postemergence; for Plant response rating, Foxtail, Giant: Preemergence
Method in brief: as §2

[6] = tested on: barnyardgrass (Echinochloa crus-galli); assay: Test C flooded paddy test: barnyardgrass; conditions: scale 0 to 100 (0 no effect, 100 complete control)
Method in brief: as §1

[7] = tested on: crabgrass, large (large crabgrass, Digitaria sanguinalis); assay: Test A pre-/postemergence: crabgrass, large; conditions: for Crabgrass, Large plant response rating: Postemergence; for Plant response rating, Crabgrass, Large: Preemergence
Method in brief: as §2

[8] = tested on: wheat (Triticum aestivum); assay: Test A pre-/postemergence: wheat; conditions: for Wheat plant response rating: Postemergence; for Plant response rating, Wheat: Preemergence
Method in brief: as §2

[9] = tested on: morningglory (Ipomoea spp.); assay: Test A pre-/postemergence: morningglory; conditions: for Morningglory plant response rating: Postemergence; for Plant response rating, Morningglory: Preemergence
Method in brief: as §2

[10] = tested on: rice (Oryza sativa); assay: Test C flooded paddy test: rice; conditions: scale 0 to 100 (0 no effect, 100 complete control)
Method in brief: as §1

[11] = tested on: pigweed (Amaranthus retroflexus); assay: Test A pre-/postemergence: pigweed; conditions: for Pigweed plant response rating: Postemergence; for Plant response rating, Pigweed: Preemergence
Method in brief: as §2

[12] = tested on: corn (Zea mays); assay: Test A pre-/postemergence: corn; conditions: for Corn plant response rating: Postemergence; for Plant response rating, Corn: Preemergence
Method in brief: as §2

[13] = Flood (flooded paddy test), 62 g ai/ha, visual rating after 13 to 15 days
[14] = Flood (flooded paddy test), 125 g ai/ha, visual rating after 13 to 15 days
[15] = Flood (flooded paddy test), 250 g ai/ha, visual rating after 13 to 15 days
[16] = 125 g ai/ha, 0 to 100 scale, 0 is no effect, 100 is complete control
[17] = 500 g ai/ha, visual rating on 0 to 100 scale (0 no effect, 100 complete control), approximately ten days
[18] = 125 g ai/ha, 0 to 100 scale (0 no effect, 100 complete control)
[19] = 500 g ai/ha, 0 to 100 scale, 0 is no effect, 100 is complete control

Structure (SMILES): COc1nn(-c2ccc(C(F)(F)F)cc2)nc1Cn1cnc(C(F)(F)F)n1 [Compound 18]
- Plant response rating, Sedge, Umbrella [1, 13]: 0
- Plant response rating, Sedge, Umbrella [1, 14]: 40
- Plant response rating, Sedge, Umbrella [1, 15]: 65
- Plant response rating, Sedge, Umbrella ([1]; Flood, 31 g ai/ha): 0
- Barnyardgrass plant response rating [2, 16]: 50
- Barnyardgrass plant response rating [2, 17]: 60
- Plant response rating, Barnyardgrass [2, 18]: 20
- Plant response rating, Barnyardgrass [2, 19]: 30
- Velvetleaf plant response rating [3, 16]: 70
- Velvetleaf plant response rating [3, 17]: 80
- Plant response rating, Velvetleaf [3, 18]: 20
- Plant response rating, Velvetleaf [3, 19]: 30
- Plant response rating, Ducksalad [4, 13]: 0
- Plant response rating, Ducksalad [4, 14]: 0
- Plant response rating, Ducksalad [4, 15]: 0
- Plant response rating, Ducksalad ([4]; Flood, 31 g ai/ha): 0
- Foxtail, Giant plant response rating [5, 16]: 30
- Foxtail, Giant plant response rating [5, 17]: 70
- Plant response rating, Foxtail, Giant [5, 18]: 80
- Plant response rating, Foxtail, Giant [5, 19]: 90
- Plant response rating, Barnyardgrass [6, 13]: 0
- Plant response rating, Barnyardgrass [6, 14]: 0
- Plant response rating, Barnyardgrass [6, 15]: 0
- Plant response rating, Barnyardgrass ([6]; Flood, 31 g ai/ha): 0
- Crabgrass, Large plant response rating [7, 16]: 60
- Crabgrass, Large plant response rating [7, 17]: 80
- Plant response rating, Crabgrass, Large [7, 18]: 90
- Plant response rating, Crabgrass, Large [7, 19]: 90
- Wheat plant response rating [8, 16]: 20
- Wheat plant response rating [8, 17]: 30
- Plant response rating, Wheat [8, 18]: 0
- Plant response rating, Wheat [8, 19]: 0
- Morningglory plant response rating [9, 16]: 80
- Morningglory plant response rating [9, 17]: 90
- Plant response rating, Morningglory [9, 18]: 10
- Plant response rating, Morningglory [9, 19]: 50
- Plant response rating, Rice [10, 13]: 0
- Plant response rating, Rice [10, 14]: 0
- Plant response rating, Rice [10, 15]: 0
- Plant response rating, Rice ([10]; Flood, 31 g ai/ha): 0
- Pigweed plant response rating [11, 16]: 100
- Pigweed plant response rating [11, 17]: 100
- Plant response rating, Pigweed [11, 18]: 80
- Plant response rating, Pigweed [11, 19]: 100
- Corn plant response rating [12, 16]: 20
- Corn plant response rating [12, 17]: 30
- Plant response rating, Corn [12, 18]: 0
- Plant response rating, Corn [12, 19]: 0

Structure (SMILES): Cc1nn(-c2ccc(C(F)(F)F)cc2)nc1Oc1ccnc(OC(F)F)c1 [Compound 48]
- Plant response rating, Sedge, Umbrella [1, 13]: 0
- Plant response rating, Sedge, Umbrella [1, 15]: 45
- Barnyardgrass plant response rating [2, 16]: 10
- Barnyardgrass plant response rating [2, 17]: 30
- Plant response rating, Barnyardgrass [2, 18]: 0
- Plant response rating, Barnyardgrass [2, 19]: 30
- Velvetleaf plant response rating [3, 16]: 30
- Velvetleaf plant response rating [3, 17]: 50
- Plant response rating, Velvetleaf [3, 18]: 0
- Plant response rating, Velvetleaf [3, 19]: 0
- Plant response rating, Ducksalad [4, 13]: 20
- Plant response rating, Ducksalad [4, 15]: 65
- Foxtail, Giant plant response rating [5, 16]: 30
- Foxtail, Giant plant response rating [5, 17]: 70
- Plant response rating, Foxtail, Giant [5, 18]: 40
- Plant response rating, Foxtail, Giant [5, 19]: 100
- Plant response rating, Barnyardgrass [6, 13]: 10
- Plant response rating, Barnyardgrass [6, 15]: 30
- Crabgrass, Large plant response rating [7, 16]: 50
- Crabgrass, Large plant response rating [7, 17]: 90
- Plant response rating, Crabgrass, Large [7, 18]: 30
- Plant response rating, Crabgrass, Large [7, 19]: 100
- Wheat plant response rating [8, 16]: 10
- Wheat plant response rating [8, 17]: 20
- Plant response rating, Wheat [8, 18]: 0
- Plant response rating, Wheat [8, 19]: 0
- Morningglory plant response rating [9, 16]: 10
- Morningglory plant response rating [9, 17]: 90
- Plant response rating, Morningglory [9, 18]: 0
- Plant response rating, Morningglory [9, 19]: 20
- Plant response rating, Rice [10, 13]: 10
- Plant response rating, Rice [10, 15]: 20
- Pigweed plant response rating [11, 16]: 100
- Pigweed plant response rating [11, 17]: 100
- Plant response rating, Pigweed [11, 18]: 40
- Plant response rating, Pigweed [11, 19]: 90
- Corn plant response rating [12, 16]: 10
- Corn plant response rating [12, 17]: 30
- Plant response rating, Corn [12, 18]: 0
- Plant response rating, Corn [12, 19]: 0
